Legend:
[1] = Toxicity in male Sprague-Dawley rat assessed as risk of consciousness loss by measuring time for first loss of righting reflex at 9.8 micromol/kg, ip measured within 4 hrs; type: organism-based; conditions: in vivo, dose 9.8 µmol/kg
[2] = Toxicity in male Sprague-Dawley rat assessed as risk of consciousness loss by measuring time for first loss of righting reflex at 12.2 micromol/kg, ip measured within 4 hrs; type: organism-based; conditions: in vivo, dose 12.2 µmol/kg
[3] = Genotoxicity in Salmonella typhimurium TA1535 assessed as induction of reverse mutation in presence of rat liver S9 fraction; type: toxicity, subcellular; conditions: salmonella enterica subsp. enterica serovar typhimurium
[4] = test system: Rattus norvegicus; test: Antiseizure activity in PTZ-induced male Sprague-Dawley rat acute seizure model assessed as increase in latency to tonic seizures at 11.6 micromol/kg, po pretreated for 2 hrs followed by PTZ addition and measured after 60 mins (reference value: 77 +/- 13.4 sec); type: functional; conditions: dose 11.6 µmol/kg, time 180 min, 3 h
[5] = Genotoxicity in Salmonella typhimurium TA97 assessed as induction of reverse mutation in absence of rat liver S9 fraction; type: toxicity; conditions: salmonella enterica subsp. enterica serovar typhimurium
[6] = Toxicity in male Sprague-Dawley rat assessed as risk of consciousness loss by measuring time for first loss of righting reflex at 29.2 micromol/kg, ip measured within 4 hrs; type: organism-based; conditions: in vivo, dose 29.2 µmol/kg
[7] = Genotoxicity in Salmonella typhimurium TA100 assessed as induction of reverse mutation in presence of rat liver S9 fraction; type: toxicity, subcellular; conditions: salmonella enterica subsp. enterica serovar typhimurium
[8] = Toxicity in male Sprague-Dawley rat assessed as risk of consciousness loss by measuring time for first loss of righting reflex at 36.6 micromol/kg, ip measured within 4 hrs; type: organism-based; conditions: in vivo, dose 36.6 µmol/kg
[9] = Ratio of Cmax in IG dosed Sprague-Dawley rat brain to plasma; type: ADME, organism-based; conditions: brain and plasma, po, read-out: BPR
[10] = test system: Rattus norvegicus; test: Antiseizure activity in PTZ-induced male Sprague-Dawley rat acute seizure model assessed as increase in latency to tonic seizures at 23.2 micromol/kg, po pretreated for 2 hrs followed by PTZ addition and measured after 60 mins (reference value: 77 +/- 13.4 sec); type: functional; conditions: dose 23.2 µmol/kg, time 180 min, 3 h
[11] = Genotoxicity in Salmonella typhimurium TA1535 assessed as induction of reverse mutation in absence of rat liver S9 fraction; type: toxicity; conditions: salmonella enterica subsp. enterica serovar typhimurium
[12] = Genotoxicity in Salmonella typhimurium TA97 assessed as induction of reverse mutation in presence of rat liver S9 fraction; type: toxicity, subcellular; conditions: salmonella enterica subsp. enterica serovar typhimurium

Row | Compound | Time [1] | Time [2] | Activity [3] | Time [4] | Activity [5] | Time [6] | Activity [7] | Time [8] | Kp [9] | Time [10] | Activity [11] | Activity [12]
1 | C[C@@]1(O)CC[C@H]2[C@H](CC[C@@H]3[C@@H]2CC[C@]2(C)[C@@H](C(=O)Cn4cc(C#N)cn4)CC[C@@H]32)C1 [ZURANOLONE] | 46 min | 33 min | – | – | – | – | – | – | – | – | – | –
2 | C[C@@]1(O)CC[C@H]2[C@H](CC[C@@H]3[C@@H]2CC[C@]2(C)[C@@H](C(=O)Cn4cnn(-c5cc(F)nc(F)c5)c4=O)CC[C@@H]32)C1 | – | – | Non-Toxic | 2686 s | Non-Toxic | 65 min | Non-Toxic | 57 min | 1.5 | 3600 s | Non-Toxic | Non-Toxic
